# Measured values from US20250017958A1, “COMBINATORIAL THERAPEUTIC APPROACH FOR FRIEDREICH'S ATAXIA” (University of Florida Research Foundation, Incorporated, priority 2021, published 2025).
# Entries after “also recorded” stand apart in the source; their conditions may differ.
# Columns and labels:
# [1] = system: FRDAkd mice; test: Survival of FRDAkd mice after FXN knockdown (DOX); type: in vivo, mouse; conditions: combination versus individual treatment
# Protocol: FIG. 4. […] No mortality was observed FRDAkd mice (DOX) treated with quercetin, taurine, and EGCG. FRDAkd mice were treated with doxycycline (DOX for FXN knockdown) or with doxycycline plus 100 mg/kg/day taurine, 35 mg/kg/day quercetin, and 4.6 mg/kg/day EGCG, and 0.5 mg/kg/day of ferrous sulfate for 16 weeks. N=10 animals per group.
# [2] = system: NRF2; conditions: FRDA patients with moderate dysfunction (Lynch D R et al. 2021); cited from earlier work
# [3] = system: NRF2; test: NRF2 expression in FRDA patient fibroblasts (Western blot, qPCR); type: cell-based, human
# Source text: (§1) FIG. 2B. […] N=3. One-way ANOVA and Welch's t-test, ±SEM. *p≤0.05, **p≤0.01, ***p 0.001.
# (§2) FIG. 3A-B. Western blot analysis of FXN and NRF2 in FRDA cells and FRDAkd mice after quercetin treatment.
# [4] = system: FXN; test: FXN expression in tissues of FRDAkd mice (Western blot); type: in vivo, mouse; conditions: for expression of FXN (Western blot): 35 mg/kg/day quercetin, 625 mg/kg doxycycline
# Protocol: as §2
# (§3) FIG. 3C-D. Western blot analysis of FXN and NRF2 in FRDA cells and FRDAkd mice after quercetin treatment. […] Tg Low Dox animals were treated with 625 mg/kg doxycycline (FXN knockdown) and Tg Low Dox+Quercetin animal was provided with 625 mg/kg doxycycline plus 35 mg/kg/day of quercetin. […] Overall, quercetin increased the expression of FXN and NRF2 in both in vitro and in vivo conditions.
# [5] = system: FXN; test: FXN expression in FRDA patient fibroblasts (Western blot, qPCR); type: cell-based, human
# Protocol: FIG. 2A. […] Expression levels were determined using Real-time PCR and normalized to Hprtl. Experiments were conducted in triplicates and values expressed as mean±SEM. One-way ANOVA and 0.05**
# as §1, §2, §3
# [6] = system: NRF2; test: NRF2 expression in tissues of FRDAkd mice (Western blot); type: in vivo, mouse; conditions: for expression of NRF2 (Western blot): 35 mg/kg/day quercetin, 625 mg/kg doxycycline
# Protocol: as §2, §3
# [7] = previous studies (Lesjak M et al. 2019); cited from earlier work
# [8] = system: iron metabolism-related genes; test: Expression of iron metabolism-related genes in cell lines (Real-time PCR); type: cell-based, human; conditions: various cell lines, including FRDA patient fibroblast cell lines
# Protocol: FIG. 2A. Graphs illustrating expression levels of frataxin (FXN) and various iron metabolism-related genes in control fibroblasts (age and sex matched) or fibroblasts from a patient with Friedreich's Ataxia (FRDA) treated with vehicle or 75 μM quercetin. Expression levels were determined using Real-time PCR and normalized to Hprtl. Experiments were conducted in triplicates and values expressed as mean±SEM. One-way ANOVA and 0.05**
# [9] = system: FXN; conditions: phase 3 randomized controlled trial, FRDA; cited from earlier work
# [10] = FRDA fibroblast cell line, 24 hours quercetin, 75 μM and 100 μM
# [11] = FRDA patient fibroblast cell lines (in vitro), summary statement
# [12] = fibroblasts from patients with FRDA, quercetin dose series
# [13] = several tissues from quercetin-treated FRDAkd mice (in vivo), summary statement
molecule,measurement,setting,value
"O=C(O[C@@H]1Cc2c(O)cc(O)cc2O[C@@H]1c1cc(O)c(O)c(O)c1)c1cc(O)c(O)c(O)c1 [EGCG, (2R,3R)-3′,4′,5,5′,7-Pentahydroxyflavan-3-yl 3,4,5-trihydroxybenzoate]",survival in mouse FRDA models,[1],did not improve survival rates
CC1(C)CC[C@]2(NC(=O)C(C)(F)F)CC[C@]3(C)[C@H](C(=O)C=C4[C@@]5(C)C=C(C#N)C(=O)C(C)(C)[C@@H]5CC[C@]43C)[C@@H]2C1 [omaveloxolone],neurological function,[2],improved
"O=c1c(O)c(-c2ccc(O)c(O)c2)oc2cc(O)cc(O)c12 [quercetin, 3,3′,4′,5,7-Pentahydroxyflavone]",expression of NRF2 (Western blot),[3]; [10],Increased expression
same,NRF2 expression,[3]; [11],increase; also recorded: enhanced
same,NRF2 marker gene expression (qPCR),[3]; [12],dose-dependent effects
same,survival in mouse FRDA models,[1],did not improve survival rates
same,expression of FXN (Western blot),"[4]; FRDAkd mice heart, eight weeks",Increased expression
same,expression of FXN (Western blot),"[4]; FRDAkd mice liver, three weeks",Increased expression
same,FXN expression,[4]; [13],increase; also recorded: enhanced
same,"expression of FXN (Western blot, independent replication)","[5]; FRDA fibroblast cell line, 24 hours quercetin, 7 μM dose",increased expression
same,expression of FXN (Western blot),[5]; [10],Increased expression
same,FXN expression,[5]; [11],increase; also recorded: enhanced
same,FXN marker gene expression (qPCR),[5]; [12],dose-dependent effects
same,expression of NRF2 (Western blot),"[6]; FRDAkd mice heart, eight weeks",Increased expression
same,expression of NRF2 (Western blot),"[6]; FRDAkd mice liver, three weeks",Increased expression
same,NRF2 expression,[6]; [13],increase; also recorded: enhanced
same,serum and tissue iron,[7],depletion
same,expression of several genes involved in iron metabolism,[8],increase expression
"NCCS(=O)(=O)O [taurine, 2-Aminoethane-1-sulfonic acid]",survival in mouse FRDA models,[1],did not improve survival rates
"interferon γ-1b: treatment option for FRDA to increase FXN levels, dropped at phase 3 (protein, UniProt P01579 24-161, looked up) Interferon gamma: QDPYVKEAENLKKYFNAGHSDVADNGTLFLGILKNWKEESDRKIMQSQIVSFYFKLFKNFKDDQSIQKSVETIKEDMNVKFFNSNKKKRDDFEKLTNYSVTDLNVQRKAIHELIQVMAELSPAAKTGKRKRSQMLFRG",outcome measures,[9],failure to show any improvement
